Reference: article PMC9594040, “Structure-Based Discovery of Negative Allosteric Modulators of the Metabotropic Glutamate Receptor 5” (ACS Chemical Biology, 2022)

biological target: T1, human mGlu5 (Homo sapiens, UniProt P41594); experiment: Radioligand displacement assay (radiolabeled MPEP) on membranes of HEK293 cells stably expressing mGlu5; settings: Ki, radioligand displacement; mean ± SEM of two experiments
T1 sequence (P41594 21-1212): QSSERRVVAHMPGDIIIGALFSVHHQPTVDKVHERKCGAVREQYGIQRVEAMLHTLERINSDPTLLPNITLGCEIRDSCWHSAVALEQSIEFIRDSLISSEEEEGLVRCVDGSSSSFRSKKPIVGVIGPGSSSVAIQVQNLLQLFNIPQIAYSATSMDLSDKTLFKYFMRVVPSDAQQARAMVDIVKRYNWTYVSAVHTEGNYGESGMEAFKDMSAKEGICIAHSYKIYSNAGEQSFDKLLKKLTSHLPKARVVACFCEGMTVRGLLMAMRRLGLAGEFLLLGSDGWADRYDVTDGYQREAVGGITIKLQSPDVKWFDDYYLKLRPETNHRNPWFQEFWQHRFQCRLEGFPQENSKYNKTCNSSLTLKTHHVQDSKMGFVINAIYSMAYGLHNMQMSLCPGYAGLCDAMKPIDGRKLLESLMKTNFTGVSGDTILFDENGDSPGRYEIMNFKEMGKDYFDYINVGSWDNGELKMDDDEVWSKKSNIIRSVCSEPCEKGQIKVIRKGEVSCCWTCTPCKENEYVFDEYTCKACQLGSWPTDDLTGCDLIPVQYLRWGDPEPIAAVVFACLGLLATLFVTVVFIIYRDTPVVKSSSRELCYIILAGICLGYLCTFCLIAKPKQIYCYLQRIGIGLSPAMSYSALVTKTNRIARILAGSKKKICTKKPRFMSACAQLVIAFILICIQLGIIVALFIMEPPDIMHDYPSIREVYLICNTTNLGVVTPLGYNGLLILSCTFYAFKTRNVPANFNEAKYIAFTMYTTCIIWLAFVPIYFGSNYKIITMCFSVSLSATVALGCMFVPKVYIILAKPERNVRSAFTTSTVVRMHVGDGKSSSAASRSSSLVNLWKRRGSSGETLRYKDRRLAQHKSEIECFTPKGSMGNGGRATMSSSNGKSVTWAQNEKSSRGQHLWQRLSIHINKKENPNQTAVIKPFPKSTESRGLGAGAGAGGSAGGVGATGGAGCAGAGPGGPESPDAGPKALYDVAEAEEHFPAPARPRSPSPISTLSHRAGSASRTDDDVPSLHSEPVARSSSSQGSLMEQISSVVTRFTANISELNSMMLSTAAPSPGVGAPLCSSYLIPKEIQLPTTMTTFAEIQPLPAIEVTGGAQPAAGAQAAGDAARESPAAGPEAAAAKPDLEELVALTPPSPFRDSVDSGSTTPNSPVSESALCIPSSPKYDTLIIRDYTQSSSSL
Procedure: Treated cells were harvested with PBS/2 mM EDTA and washed three times with ice-cold PBS and frozen at −80 °C. The frozen cell pellet was resuspended in membrane buffer (25 mM Tris/7.4, 250 mM sucrose, 2.5 mM EDTA, 2 ug/ml aprotinin, 0.5 ug/ml leupeptin and 200 nM PMSF) and homogenized with a polytron 20–30 s at maximum power. After centrifugation at 18,000 RPM for 30 min at 4 °C, the pellet was resuspended in ice-cold membrane buffer, hand-homogenized, and centrifuged as described above. This pellet was further resuspended in ice-cold membrane buffer. The protein content was measured using the Bradford method with bovine serum albumin as the standard. The membrane homogenate was frozen at −80 °C before use. After thawing, the membranes were washed once and resuspended in ice-cold 50 mM Tris–HCl, 0.9% NaCl, pH 7.4 buffer. All incubations were performed at room temperature. For the displacement binding experiments, 15 μg of membranes were incubated with 5 nM the radioligand in the presence of 10 varying concentrations of the test compound for 2 h at room temperature with shaking. At the end of the respective incubations, the suspension was filtered onto PerkinElmer GF/C glass fiber filters (1450–421) pre-soaked in 0.5% polyethyleneimine and washed rapidly four times using a Tomtec Harvester 96 Mach III cell harvester (Tomtec, Hamden, CT) with 5 mL of cold wash buffer (50 mM Tris–HCl, pH 7.4). The radioactivity trapped on the filters was measured after heat sealing the filters with MeltiLexTM A (PerkinElmer, 1450–441) in a 1450 MicroBeta TriLux counter (PerkinElmer). […] IC50 values were derived from the inhibition curve, and Ki values were calculated according to the Cheng-Prusoff equation of Ki = IC50/(1 + [L]/Kd),[61] where [L] is the concentration of radioligand and Kd is its dissociation constant at the receptor, derived from the saturation isotherm.

| Structure (SMILES) | Ki [µM] |
| --- | --- |
| COCc1cccc(/C=C/c2cccc(C)n2)c1 [F2] | 0.92 ± 0.12 |
| COc1ccc(Cn2cccc2-c2nc(-c3ccncc3)no2)cc1 [L3] | 3.6 ± 0.1 |
| CN(Cc1cnn(-c2ccccc2)c1)c1noc(-c2ccccc2)n1 [L4] | 4 ± 0.5 |
| Cn1c(SCc2noc(-c3ccoc3)n2)nnc1-c1ccco1 [L2] | 1.1 ± 0.1 |
| Cc1cnn(CC2CCCCN2C(=O)c2cc(-c3ccco3)on2)c1 (stereo not shown) [L1] | 0.99 ± 0.15 |
| N#Cc1cccc(COc2ccccc2F)c1 [F4] | 8.6 ± 0.1 |
| COc1cccc(CNc2cccc(C#N)c2)c1 [F1] | 0.43 ± 0.01 |

same assay, conditions: Ki, resynthesized pure sample of F2, new binding assays

| Structure (SMILES) | Ki [µM] |
| --- | --- |
| COCc1cccc(/C=C/c2cccc(C)n2)c1 [F2] | 0.55 |

same assay, conditions: Table S1; radioligand displacement at 30 µM; mean ± SEM of two experiments

| Structure (SMILES) | Inhibition at 30 µM [%] |
| --- | --- |
| CC1CN(C(=O)Nc2cccc(C#N)c2)CC(c2ccccc2)O1 (stereo not shown) [L14] | 38 ± 12 |
| O=C(Nc1cccc(OCc2ccccn2)c1)c1cccc(F)c1 [L16] | 36 ± 1 |
| COCc1cccc(Nc2ccnc(C#N)c2)c1 [F19] | 32 ± 4 |
| O=C(COc1ccccc1)Nc1cccc(NC(=O)c2ccncc2)c1 [L45] | 25 ± 7 |
| Cc1ccccc1CNc1ccc(F)c(C#N)c1 [F18] | 33 ± 9 |
| CC1CC1C(=O)N(C)CCOc1ccccc1 (stereo not shown) [F15] | 33 ± 9 |
| Cc1cccn2cc(Cn3ccccc3=O)nc12 [F58] | 16 ± 5 |
| COCc1ccc(CNc2ncccc2F)cc1 [F57] | 17 ± 3 |
| CC[C@H](Nc1cnn(CC)c1)c1ccc(C)cc1 [F40] | 24 ± 7 |
| CCCn1cc(C(=O)Nc2cccc(NC(=O)c3ccncc3)c2)cn1 [L34] | 29 ± 1 |
| CC(C)c1nccn1Cc1nc2ccccc2[nH]1 [F16] | 33 ± 5 |
| O=C(NCc1ccnc(OCc2ccccc2)c1)c1cccc(F)c1 [L46] | 24 ± 3 |
| O=C(Nc1ccc(F)c(F)c1)C1(c2cc(-c3ccco3)on2)CC1 [L56] | 18 ± 6 |
| CC[C@@H]1CCCC(C(=O)Nc2ccccc2)=C1O [F46] | 22 ± 1 |
| Cc1cccc(NC(=O)Cc2ccc(O)cc2)c1 [F5] | 42 ± 5 |
| O=C(NCc1ccc(N2CCCC2)nc1)c1cnn(-c2ccccc2)c1 [L11] | 40 ± 4 |
| Fc1ccc(F)c(NCCCn2ccnc2)c1 [F55] | 19 ± 5 |
| CN(Cc1cc(-c2ccccc2)no1)C(=O)CCOc1ccccc1 [L40] | 27 ± 3 |
| O=C(CCc1ccncc1)N1CC(n2cc(-c3ccccc3)nn2)C1 [L32] | 29 ± 3 |
| c1ccc(-c2nsc(-n3ccnc3)n2)cc1 [F43] | 23 ± 2 |
| CC(O)c1cccc(OCc2ccccc2)c1 (stereo not shown) [F27] | 27 ± 3 |

| Structure (SMILES) | Inhibition at 30 µM [%] |
| --- | --- |
| CN(Cc1cn2ccccc2n1)c1ccccc1 [F22] | 31 ± 1 |
| O=C(Nc1ccccc1F)OCc1cccnc1 [F34] | 26 ± 4 |
| CCN(CC(O)c1ccccc1)c1ccccc1 (stereo not shown) [F29] | 27 ± 1 |
| Nc1ccccc1-c1nc2cc(F)c(F)cc2[nH]1 [F59] | 9 ± 1 |
| O=C(NCc1ccccc1)c1csc(COc2ccc(F)cc2)n1 [L19] | 34 ± 3 |
| CC(NC(=O)c1cccc(F)c1)c1ccc(-n2cncn2)cc1 (stereo not shown) [L53] | 19 ± 2 |
| Cn1ccnc1SCC=Cc1ccccc1 [F20] | 31 ± 1 |
| Cc1noc(CCC(=O)N2CCC(CSc3ccccc3)C2)n1 (stereo not shown) [L15] | 37 ± 6 |
| O=C(COc1ccc2ccccc2c1)N1CC(c2nc(C3CC3)no2)C1 [L57] | 17 ± 2 |
| O=C(c1ccc(Cl)s1)N1CC(c2nc(-c3ccncc3)no2)C1 [L49] | 22 ± 1 |
| OCc1cccc(NCc2cccc(Cl)c2)c1 [F26] | 28 ± 15 |
| O=C(COc1ccccc1)NCc1cc(-c2ccc(F)cc2)on1 [L50] | 20 ± 1 |
| CC(=O)c1nc(Nc2ccccc2)sc1C [F50] | 20 ± 9 |
| CCCOc1ccc(N2CC(C(=O)Nc3ccccn3)CC2=O)cc1 (stereo not shown) [L47] | 24 ± 3 |
| Cc1ccc(C(C)NC(=O)c2ccc(F)cc2)o1 (stereo not shown) [F10] | 35 ± 8 |
| CN(Cc1cnn(-c2ccccc2)c1)C(=O)c1cc(-c2ccco2)on1 [L20] | 34 ± 5 |
| Cc1ccc(OCC(=O)N2CC(c3nc(-c4ccco4)no3)C2)cc1 [L59] | 15 ± 1 |
| CN(CCc1ccccn1)c1ccc(Cl)nn1 [F48] | 21 ± 1 |
| CCOc1cccc(CNC(=O)C2CC=CC2)c1 [F7] | 39 ± 7 |
| Clc1ncnc2cc(-c3ccccc3)[nH]c12 [F41] | 24 ± 2 |
| O=C(CCc1cccnc1)N1CCCC(COc2cccc(F)c2)C1 (stereo not shown) [L24] | 32 ± 3 |

| Structure (SMILES) | Inhibition at 30 µM [%] |
| --- | --- |
| CC(O)c1ccc(OCc2ccc(F)cc2)cc1 (stereo not shown) [F47] | 21 ± 3 |
| O=C(CSc1ccccc1)N1CC(OCc2cccc(F)c2)C1 [L55] | 18 ± 3 |
| C=CCNC(=O)c1ccc(Oc2ccccc2)o1 [F13] | 35 ± 10 |
| N#Cc1cc(CNc2ccn(-c3ncccc3Cl)n2)ccc1F [L10] | 41 ± 7 |
| N#Cc1ccnc(Nc2ccc3c(c2)OCO3)c1 [F30] | 27 ± 3 |
| O=C(NCc1ccc(-n2cccn2)cc1)c1cc2ccccc2s1 [L12] | 39 ± 6 |
| c1ccc(Cn2nnc(-c3ccncc3)n2)cc1 [F38] | 25 ± 3 |
| c1ccc(-n2cc(CCn3cnnc3)cn2)cc1 [F17] | 33 ± 3 |
| N#Cc1ccc(OC/C=C/c2ccccc2)nc1 [F11] | 35 ± 6 |
| C#Cc1cccc(NC(C)c2ccccc2)c1 (stereo not shown) [F44] | 23 ± 4 |
| CN(C)C(=O)c1cc(OCc2ccccc2)no1 [F32] | 27 ± 1 |
| Cc1cc(Cn2ccc(-c3ccccc3)n2)on1 [F53] | 19 ± 2 |
| c1ccc(OCc2noc(NCc3nc4ccccc4s3)n2)cc1 [L43] | 26 ± 12 |
| CC(c1nc(-c2ccccc2)no1)n1ccnc1 (stereo not shown) [F21] | 31 ± 1 |
| CCC(NC(=O)c1ccccn1)c1ccccc1 (stereo not shown) [F52] | 19 ± 5 |
| Cc1cc(CN(C)C(=O)Nc2ccccc2)on1 [F14] | 33 ± 4 |
| Cc1csc(CNC(=O)N2CCC(COCc3ccccc3)C2)n1 (stereo not shown) [L48] | 23 ± 4 |
| CCn1cnnc1CNC(=O)c1cccc(C)c1 [F24] | 30 ± 1 |
| COc1ccc(CNC(=O)c2csnn2)cc1 [F25] | 28 ± 9 |
| Cc1ccc(C2CC2c2nc(CNC(=O)c3ccccc3)no2)s1 (stereo not shown) [L26] | 31 ± 7 |

same assay, conditions: Table S1; radioligand displacement; mean ± SEM of two experiments

| Structure (SMILES) | Ki [µM] |
| --- | --- |
| CC(CCOc1ccccc1)c1nc(-c2ccc(C#N)cn2)no1 (stereo not shown) [L8] | 11 ± 1 |

same assay, conditions: radioligand displacement; mean ± SEM of two experiments

| Structure (SMILES) | Ki [µM] |
| --- | --- |
| O=C(Nc1cccc(Cn2ccnc2)c1)c1cccc(F)c1 [L9] | 16 |

biological target: T1, human mGlu5; experiment: IP1 functional assay, quisqualate-stimulated HEK293 cells expressing mGlu5; format: cell-based; set-up: expressed in transfected cells; host or cells: HEK293 cells, transient electroporation; glutamate transporter EAAC1 co-transfected; settings: agonist (quisqualate)-induced mGlu5-dependent IP1 production
Procedure: Figure 3 Evaluation of compounds F1 and F2 in functional assays. Representative dose–response curve of compounds (a) F1 and (b) F2 in an IP1 functional assay. […] Each point was performed in triplicate and is shown as a mean ± SEM of 3–5 independent experiments.
HEK293 cells were cultured in Dulbecco’s modified Eagle’s medium (DMEM) supplemented with 10% fetal bovine serum (FBS) and were maintained at 37 °C in a humidified atmosphere with 5% CO2. Transient transfection was performed using electroporation in a volume of […] with […] of plasmid encoding SNAP-tag human mGlu5, […] plasmid encoding for the glutamate transporter EAAC1 plasmids, and 10 million of HEK293 cells in electroporation buffer (50 mM K2HPO4, 20 mM CH3COOK, and 20 mM KOH, pH 7.4). After electroporation (250 V, 0.5 mF, Bio–Rad Gene Pulser electroporator; Bio-Rad Laboratories, Hercules, CA), cells were resuspended in 10 mL of DMEM supplemented with 10% FBS and seeded for 24 h into black, clear-bottom 96-well culture plates (Greiner Bio-one), pretreated with Poly-L-Ornithine 1X, at a density of 100,000 cells per well. Following 24 h of transfection, HEK293 cells were incubated for 2 h with glutamate-free DMEM GlutaMAX-I (Life Technologies). The IP1 accumulation assay kit (Cisbio Bioassays, PerkinElmer) was used for the direct quantitative measurement of IP1. Cells were stimulated by quisqualate at EC80 alone and with various concentrations of allosteric compounds, incubated for 30 min at 37 °C, 5% CO2. Cells were then lysed using the conjugate-lysis buffer mixed with the d2-labeled IP1 analogue and the Lumi4-terbium cryptate-labeled anti-IP1 antibody according to the manufacturer’s instructions. After a 1 h incubation at room temperature, the HTRF measurement was performed after excitation at 337 nm with 50 μs delay. Terbium cryptate fluorescence and tr-FRET signals were measured at 620 and 665 nm, respectively, using a PheraStar fluorimeter (BMG Labtech).

| Structure (SMILES) | functional activity in IP1 assay |
| --- | --- |
| COCc1cccc(/C=C/c2cccc(C)n2)c1 [F2] | acted as NAMs |
| COc1cccc(CNc2ccccc2)c1 [FA2] | inactive |
| Cn1c(SCc2noc(-c3ccoc3)n2)nnc1-c1ccco1 [L2] | negatively modulated |
| Cc1cnn(CC2CCCCN2C(=O)c2cc(-c3ccco3)on2)c1 (stereo not shown) [L1] | negatively modulated |
| N#Cc1cccc(NCc2ccccc2)c1 [FA1] | inactive |
| COc1cccc(CNc2cccc(C#N)c2)c1 [F1] | acted as NAMs |

same assay, conditions: analogues of F1; read-out: IC50

| Structure (SMILES) | IC50 [µM] |
| --- | --- |
| COc1cccc(CNc2ccccc2)c1 [FA2] | > 100 |
| N#Cc1cccc(NCc2ccccc2)c1 [FA1] | > 100 |

same assay, conditions: quisqualate 50 nM; mean ± SEM of 3–5 independent experiments; read-out: pIC50 (converted)

| Structure (SMILES) | IC50 [µM] |
| --- | --- |
| COCc1cccc(/C=C/c2cccc(C)n2)c1 [F2] | 7.94 |
| COc1cccc(CNc2cccc(C#N)c2)c1 [F1] | 6.31 |
